According to PMC4022547 (Molecular Brain, 2014):
Like-named read-outs stand apart in the source and are kept apart here.

Key:
hα6 + hβ4 nAChR = hα6 + hβ4 nAChR (Homo sapiens, UniProt P30926+Q15825); set-up: method as in Kuryatov et al. (2000) [29]; details: ref Kuryatov et al. (2000) [29]; cited from earlier work
hα6 + hβ4 + hβ3 nAChR [1] = target: T1, hα6 + hβ4 + hβ3 nAChR (Homo sapiens, UniProt P30926+Q15825); set-up: method as in PMID 11044728; details: ref [29]; cited from earlier work
hα6 + hβ4 + hβ3 nAChR [2] = target: T1, hα6 + hβ4 + hβ3 nAChR; experiment: Oocyte two-electrode voltage clamp; type: cell-based
Protocol: (§1) We planned to introduce identical amounts of cRNA, presumably producing equal amounts of each subunit protein, into oocytes largely due to lack of information about the levels of mRNA for each subunits that compose α6*-nAChRs in neurons or other cells. Concentrations of cRNAs for each nAChR α and β subunits (WT, mutant or variant) were adjusted to 500 ng μL^−1. We provisionally assumed that hα6 or its variants in association with hβ2 or hβ4 subunits would form complexes having 2:3 and/or 3:2 ratios of the indicated subunits and that oocytes also injected with WT or mutant form of β3 subunits (i.e., β3^V9’S) would express nAChR with 2:2:1 ratios of α:β:(β3 or β3^V9’S) subunits. For expression of binary nAChRs (i.e., two subunit containing nAChRs; α + β but not β3) cRNA mixtures were prepared by mixing 1 μL of cRNA for each subunit and an additional μL of RNAse free water (i.e., total volume 3 μL). Similarly for expression of ternary nAChRs [i.e., three subunit containing nAChRs; (α + β) + (β3 or β3^V9’S)] cRNA mixtures were prepared by mixing 1 μL of cRNA for each subunit. Several preparations of each mixture were prepared and stored at −80°C until further use. Injection of 138 nL of cRNA, out of 3 μL cRNA mixtures, into each oocyte would deliver ~23 ng of cRNA for each subunit whether binary or ternary nAChRs are expressed.
(§2) Two to 5 days after injection, oocytes were placed in a small-volume chamber and continuously perfused with OR2. The chamber was grounded through an agarose bridge. The oocytes were voltage-clamped at −70 mV (unless otherwise noted) to measure agonist or antagonist induced currents using Axoclamp 900A and pClamp 10.2 software (Molecular Devices, Sunnyvale, CA). The current signal was low-pass filtered at 10 Hz with the built-in low-pass Bessel filter in the Axoclamp 900A and digitized at 20 Hz with Axon Digidata1440A and pClamp10. […] Drugs (agonists and antagonists) were prepared daily in OR2. Drug was applied using a Valvelink 8.2 perfusion system (Automate scientific, Berkeley, CA). […] Then for the purpose of comparison electrophysiological recordings were performed in a given day in a given batch of oocytes following the same order of injections. […] All hβ4*-nAChR recordings were done in similar conditions to facilitate comparisons between hα6hβ4- and hα6hβ4hβ3-nAChRs. All electrophysiological measurements were conducted or checked in at least two batches of oocytes.
(§3) Raw data was collected and processed in part using pClamp 10.2 (Molecular Devices, Sunnyvale, CA), Origin 7.5 (OriginLab Corporation, Northampton, MA) and a spreadsheet (Excel; Microsoft, Bellevue, WA). Peak current amplitudes (Imax) are reported as mean ± SEM (for results from at least three oocytes, i.e., n = 3).

hα6(A184D) + hβ4 nAChR = hα6(A184D) + hβ4 nAChR (Homo sapiens, UniProt P30926+Q15825, A184D); experiment: Oocyte two-electrode voltage clamp; type: cell-based
Protocol: as §1, §2, §3

hα6(D199Y) + hβ4 nAChR = hα6(D199Y) + hβ4 nAChR (Homo sapiens, UniProt P30926+Q15825, D199Y); experiment: Oocyte two-electrode voltage clamp; type: cell-based
Protocol: as §1, §2, §3

hα6(S233C) + hβ4 nAChR = hα6(S233C) + hβ4 nAChR (Homo sapiens, UniProt P30926+Q15825, S233C); experiment: Oocyte two-electrode voltage clamp; type: cell-based
Protocol: as §1, §2, §3

[3] = target: hα6(S233C) + hβ4 + hβ3 nAChR (Homo sapiens, UniProt P30926+Q15825, S233C); experiment: Oocyte two-electrode voltage clamp; type: cell-based
Protocol: as §1, §2, §3

hα6(R96H) + hβ4 nAChR = target: T2, hα6(R96H) + hβ4 nAChR (Homo sapiens, UniProt P30926+Q15825, R96H); experiment: Oocyte two-electrode voltage clamp; type: cell-based
T2 construct: Full length capped mRNA (i.e., cRNA) was transcribed from linearized plasmids; expressed in transfected cells; host or cells: Xenopus laevis oocytes injected with cRNA
Protocol: as §1, §2, §3

[4] = target: T3, hα6(R96H) + hβ4 + hβ3 nAChR (Homo sapiens, UniProt P30926+Q15825, R96H); experiment: Oocyte two-electrode voltage clamp; type: cell-based
T3 construct: Full length capped mRNA (i.e., cRNA) was transcribed from linearized plasmids; expressed in transfected cells; host or cells: Xenopus laevis oocytes injected with cRNA
Protocol: as §1, §2, §3

[5] = target: hα6(D199Y) + hβ4 + hβ3 nAChR (Homo sapiens, UniProt P30926+Q15825, D199Y); experiment: Oocyte two-electrode voltage clamp; type: cell-based
Protocol: as §1, §2, §3

[6] = target: T4, hα6(R87C) + WT hβ2 + hβ3^V9’S nAChR (Homo sapiens, UniProt P17787+Q15825, R87C); experiment: Oocyte two-electrode voltage clamp; type: cell-based
T4 construct: Full length capped mRNA (i.e., cRNA) was transcribed from linearized plasmids; expressed in transfected cells; host or cells: Xenopus laevis oocytes injected with cRNA
Protocol: as §1, §2, §3

[7] = 100 μM nicotine, oocytes clamped at −70 mV

Sequence of hα6(S233C) + hβ4 nAChR (Q15825 26-494 S233C): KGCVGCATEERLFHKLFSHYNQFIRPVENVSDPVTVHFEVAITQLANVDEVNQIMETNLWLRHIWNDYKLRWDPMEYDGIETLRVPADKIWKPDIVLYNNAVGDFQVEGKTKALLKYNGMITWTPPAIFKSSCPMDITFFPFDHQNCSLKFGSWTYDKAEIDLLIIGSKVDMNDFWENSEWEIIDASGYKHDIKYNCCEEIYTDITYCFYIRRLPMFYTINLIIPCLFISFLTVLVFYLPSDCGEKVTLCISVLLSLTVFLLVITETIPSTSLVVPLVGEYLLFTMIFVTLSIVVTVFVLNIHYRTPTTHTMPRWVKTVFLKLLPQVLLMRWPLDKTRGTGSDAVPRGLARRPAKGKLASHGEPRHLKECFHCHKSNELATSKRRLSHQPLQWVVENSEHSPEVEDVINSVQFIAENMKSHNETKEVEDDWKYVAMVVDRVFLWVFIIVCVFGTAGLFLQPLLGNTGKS
Sequence of hα6(S233C) + hβ4 nAChR (P30926 22-498): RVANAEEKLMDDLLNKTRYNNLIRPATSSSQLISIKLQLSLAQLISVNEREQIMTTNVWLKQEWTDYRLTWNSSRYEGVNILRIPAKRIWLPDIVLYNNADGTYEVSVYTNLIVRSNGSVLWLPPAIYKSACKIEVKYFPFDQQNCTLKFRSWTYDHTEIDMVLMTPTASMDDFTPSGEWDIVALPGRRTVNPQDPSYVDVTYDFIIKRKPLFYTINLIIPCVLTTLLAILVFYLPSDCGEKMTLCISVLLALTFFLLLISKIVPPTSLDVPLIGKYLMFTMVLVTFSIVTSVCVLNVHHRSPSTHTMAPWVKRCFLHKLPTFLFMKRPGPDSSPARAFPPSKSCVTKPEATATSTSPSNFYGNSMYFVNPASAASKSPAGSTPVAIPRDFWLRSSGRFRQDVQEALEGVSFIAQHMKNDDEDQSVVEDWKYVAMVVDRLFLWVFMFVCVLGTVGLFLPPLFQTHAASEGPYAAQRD
Sequence of hα6(S233C) + hβ4 + hβ3 nAChR (Q15825 26-494 S233C): as the sequence (Q15825 26-494 S233C) above
Sequence of hα6(S233C) + hβ4 + hβ3 nAChR (P30926 22-498): as the sequence (P30926 22-498) above
Sequence of hα6(S233C) + hβ4 + hβ3 nAChR (Q05901 25-458 partner limits assumed): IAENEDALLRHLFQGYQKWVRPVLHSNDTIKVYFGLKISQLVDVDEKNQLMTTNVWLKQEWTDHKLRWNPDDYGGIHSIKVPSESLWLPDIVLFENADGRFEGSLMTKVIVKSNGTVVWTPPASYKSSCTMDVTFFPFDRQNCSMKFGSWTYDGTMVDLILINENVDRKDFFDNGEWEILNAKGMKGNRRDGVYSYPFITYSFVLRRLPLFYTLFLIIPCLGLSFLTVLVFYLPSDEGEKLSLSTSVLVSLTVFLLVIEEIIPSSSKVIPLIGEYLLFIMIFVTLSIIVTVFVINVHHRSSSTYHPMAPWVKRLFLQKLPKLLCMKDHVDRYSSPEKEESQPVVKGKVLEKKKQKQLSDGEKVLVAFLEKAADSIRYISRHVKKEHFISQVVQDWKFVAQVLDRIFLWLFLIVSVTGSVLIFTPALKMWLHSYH
Sequence of hα6(D199Y) + hβ4 nAChR (Q15825 26-494 D199Y): as the sequence (Q15825 26-494 S233C) above, with D174Y, C208S counted along it
Sequence of hα6(D199Y) + hβ4 nAChR (P30926 22-498): as the sequence (P30926 22-498) above
Sequence of hα6(D199Y) + hβ4 + hβ3 nAChR (Q15825 26-494 D199Y): as the sequence (Q15825 26-494 S233C) above, with D174Y, C208S counted along it
Sequence of hα6(D199Y) + hβ4 + hβ3 nAChR (P30926 22-498): as the sequence (P30926 22-498) above
Sequence of hα6(D199Y) + hβ4 + hβ3 nAChR (Q05901 25-458 partner limits assumed): as the sequence (Q05901 25-458 partner limits assumed) above
T3 sequence (Q15825 26-494 R96H): as the sequence (Q15825 26-494 S233C) above, with R71H, C208S counted along it
T3 sequence (P30926 22-498, stated change not applied): as the sequence (P30926 22-498) above
T3 sequence (Q05901 25-458 partner limits assumed): as the sequence (Q05901 25-458 partner limits assumed) above
T1 sequence (Q15825 26-494): as the sequence (Q15825 26-494 S233C) above, with C208S counted along it
T1 sequence (P30926 22-498): as the sequence (P30926 22-498) above
T1 sequence (Q05901 25-458 partner limits assumed): as the sequence (Q05901 25-458 partner limits assumed) above
Sequence of hα6(A184D) + hβ4 nAChR (Q15825 26-494 A184D): as the sequence (Q15825 26-494 S233C) above, with A159D, C208S counted along it
Sequence of hα6(A184D) + hβ4 nAChR (P30926 22-498): as the sequence (P30926 22-498) above
T4 sequence (Q15825 26-494 R87C): as the sequence (Q15825 26-494 S233C) above, with R62C, C208S counted along it
T4 sequence (P17787 26-502): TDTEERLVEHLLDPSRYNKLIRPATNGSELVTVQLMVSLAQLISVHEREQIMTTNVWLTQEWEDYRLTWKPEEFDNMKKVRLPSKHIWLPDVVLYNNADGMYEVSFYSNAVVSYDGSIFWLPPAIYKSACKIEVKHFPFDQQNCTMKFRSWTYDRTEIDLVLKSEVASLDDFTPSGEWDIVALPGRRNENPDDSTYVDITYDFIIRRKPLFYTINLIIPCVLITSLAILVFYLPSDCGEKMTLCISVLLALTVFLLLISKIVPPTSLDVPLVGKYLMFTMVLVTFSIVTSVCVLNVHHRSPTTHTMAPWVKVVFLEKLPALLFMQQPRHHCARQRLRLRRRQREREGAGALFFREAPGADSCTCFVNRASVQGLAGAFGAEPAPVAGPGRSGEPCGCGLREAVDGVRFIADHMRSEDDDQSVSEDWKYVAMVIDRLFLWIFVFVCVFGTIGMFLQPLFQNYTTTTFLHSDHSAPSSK
T4 sequence (Q05901 25-458 V273S partner limits assumed): as the sequence (Q05901 25-458 partner limits assumed) above, with V249S counted along it
T2 sequence (Q15825 26-494 R96H): as the sequence (Q15825 26-494 S233C) above, with R71H, C208S counted along it
T2 sequence (P30926 22-498, stated change not applied): as the sequence (P30926 22-498) above
Sequence of hα6 + hβ4 nAChR (Q15825 26-494): as the sequence (Q15825 26-494 S233C) above, with C208S counted along it
Sequence of hα6 + hβ4 nAChR (P30926 22-498): as the sequence (P30926 22-498) above

CN1CCC[C@H]1c1cccnc1 [nicotine, L-nicotine]
EC50 (hα6 + hβ4 nAChR): 7.1 µM
EC50 (hα6 + hβ4 + hβ3 nAChR [1]): 10 ± 3 µM
EC50 (hα6 + hβ4 + hβ3 nAChR [2]): 12 µM
Imax conc. (concentration where maximal peak current achieved) (hα6 + hβ4 + hβ3 nAChR [2]): 100 µM
nH ± SE (Hill coefficient) (hα6 + hβ4 + hβ3 nAChR [2]): 1.5±0.45
increase of peak current response relative to hα6hβ4-nAChRs (hα6 + hβ4 + hβ3 nAChR [2]; 100 μM nicotine): ~ 12 fold
Mean (±SE) peak current response (hα6 + hβ4 + hβ3 nAChR [2]; [7]): 407 ± 34 nA
EC50 (hα6(A184D) + hβ4 nAChR): 2.7 µM
Imax conc. (concentration where maximal peak current achieved) (hα6(A184D) + hβ4 nAChR): 100 µM
nH ± SE (Hill coefficient) (hα6(A184D) + hβ4 nAChR): 1.1±0.15
peak current (Imax, mean ± SE) (hα6(A184D) + hβ4 nAChR; [7]): 122 ± 12 nA
EC50 (hα6(D199Y) + hβ4 nAChR): 4.4 µM
Imax conc. (concentration where maximal peak current achieved) (hα6(D199Y) + hβ4 nAChR): 100 µM
nH ± SE (Hill coefficient) (hα6(D199Y) + hβ4 nAChR): 1.1±0.26
peak current (Imax, mean ± SE) (hα6(D199Y) + hβ4 nAChR; [7]): 90 ± 11 nA
EC50 (hα6(S233C) + hβ4 nAChR): 6.2 µM
Imax conc. (concentration where maximal peak current achieved) (hα6(S233C) + hβ4 nAChR): 100 µM
nH ± SE (Hill coefficient) (hα6(S233C) + hβ4 nAChR): 1.4±0.13
peak current (Imax, mean ± SE) (hα6(S233C) + hβ4 nAChR; [7]): 73 ± 20 nA
EC50 [3]: 6.9 µM
Imax conc. (concentration where maximal peak current achieved) [3]: 100 µM
nH ± SE (Hill coefficient) [3]: 1.4±0.12
Mean (±SE) peak current response [3, 7]: 536 ± 66 nA
Imax conc. (concentration where maximal peak current achieved) (hα6(R96H) + hβ4 nAChR): 100 µM
peak current (Imax, mean ± SE) (hα6(R96H) + hβ4 nAChR; [7]): 73 ± 10 nA
EC50 [4]: 8.2 µM
Imax conc. (concentration where maximal peak current achieved) [4]: 100 µM
nH ± SE (Hill coefficient) [4]: 1.2±0.13
Mean (±SE) peak current response [4, 7]: 513 ± 42 nA
EC50 [5]: 11 µM
Imax conc. (concentration where maximal peak current achieved) [5]: 100 µM
nH ± SE (Hill coefficient) [5]: 1.5±0.42
Mean (±SE) peak current response [5, 7]: 276 ± 47 nA
current response ([6]; ACh, nicotine or atropine, hβ2 type not specified): not obtained
current response ([6]; nicotine): did not yield current responses
